Results reported in US12209102B2, “Heterocyclic compounds and uses thereof” (Kumquat Biosciences Inc., priority 2022, dated 2025).

What was measured:
[1] = target: T1, K-Ras G12D (Homo sapiens, UniProt P01116, G12D); assay: HTRF resonance energy transfer assay, K-Ras G12D / SOS1 interaction; format: biochemical; conditions: HTRF assay of Example 5; read-out: IC50 against K-Ras G12D
T1 construct: made in house; host or cells: E. coli BL21 (DE3)
Procedure, shortened: (§1)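 GST-tagged K-Ras (WT or mutant) bound to anti-GST-Eu donor was mixed with His-hSOS1 bound to anti-6His-XL665 acceptor in ~5 mM HEPES pH 7.4, 150 mM NaCl, 1 mM DTT, 0.05% BSA, 0.0025% Igepal. HTRF (ex 337, em 620/665 nm) was read after ~10 min or longer. IC50 came from the 665/620 ratio over duplicates from 10 μM to 0.01 μM.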

[2] = target: T2, K-Ras G12S (Homo sapiens, UniProt P01116, G12S); assay: HTRF resonance energy transfer assay, K-Ras G12S / SOS1 interaction; format: biochemical; conditions: HTRF assay of Example 5; read-out: IC50 against K-Ras G12S
T2 construct: made in house; host or cells: E. coli BL21 (DE3)
T2 sequence (P01116 1-188 isoform P01116-2 G12S): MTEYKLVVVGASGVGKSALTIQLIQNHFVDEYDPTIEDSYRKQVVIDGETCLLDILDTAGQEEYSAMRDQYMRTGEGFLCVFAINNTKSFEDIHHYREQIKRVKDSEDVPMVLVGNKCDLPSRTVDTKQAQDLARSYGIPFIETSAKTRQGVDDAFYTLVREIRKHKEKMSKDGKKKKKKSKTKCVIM
Procedure, shortened: as §1

[3] = target: T3, K-Ras G12V (Homo sapiens, UniProt P01116, G12V); assay: HTRF resonance energy transfer assay, K-Ras G12V / SOS1 interaction; format: biochemical; conditions: HTRF assay of Example 5; read-out: IC50 against K-Ras G12V
T3 construct: made in house; host or cells: E. coli BL21 (DE3)
T3 sequence (P01116 1-188 isoform P01116-2 G12V): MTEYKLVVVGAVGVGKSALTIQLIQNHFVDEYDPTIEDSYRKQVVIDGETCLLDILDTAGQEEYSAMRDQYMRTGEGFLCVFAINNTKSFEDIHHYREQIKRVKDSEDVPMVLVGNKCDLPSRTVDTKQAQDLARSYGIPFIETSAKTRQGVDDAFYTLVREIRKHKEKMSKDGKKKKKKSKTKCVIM
Procedure, shortened: as §1

[4] = target: T4, K-Ras WT (Homo sapiens, UniProt P01116); assay: HTRF resonance energy transfer assay, K-Ras WT / SOS1 interaction; format: biochemical; conditions: HTRF assay of Example 5; read-out: IC50 against K-Ras WT
T4 construct: made in house; host or cells: E. coli BL21 (DE3)
T4 sequence (P01116 1-188 isoform P01116-2): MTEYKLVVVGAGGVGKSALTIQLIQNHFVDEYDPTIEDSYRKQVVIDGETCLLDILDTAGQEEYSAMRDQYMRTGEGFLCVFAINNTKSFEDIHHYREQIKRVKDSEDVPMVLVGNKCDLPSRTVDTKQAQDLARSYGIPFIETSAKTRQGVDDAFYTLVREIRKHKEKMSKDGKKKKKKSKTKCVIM
Procedure, shortened: as §1

[5] = tested on: A549 cells; assay: Ras cellular assay, growth of cells with K-Ras G12S mutation (CellTiter-Glo); format: cell-based; conditions: Homo sapiens, cell growth, Example 9, G12S mutation, read-out: IC50 against A549 cells
Procedure: For example, this assay can be also used to assess a selective growth inhibition of a mutant Ras protein relative to a wildtype, or relative to a different mutant Ras protein.
A549 (ATCC CCL-185) and LS123 (ATCC CCL-255) cell lines comprise a G12S mutation and can be used to assess Ras cellular signaling in vitro, e.g., in response to the compounds herein. A549 culture medium is prepared with RPMI-1640 and 10% heat-inactivated FBS. LS123 culture medium is prepared with RPMI-1640 and 10% heat-inactivated FBS. A CellTiter-Glo (CTG) luminescent based assay (Promega) is used to assess growth of the cells, as a measurement of the ability of the compounds herein to inhibit Ras signaling in the cells. The cells (e.g., 800 per well) are seeded in their respective culture medium in standard tissue culture-treated 384-well format plates (Falcon #08-772-116) or ultra-low attachment surface 384-well format plates (S-Bio #MS-9384WZ). The day after plating, cells are treated with a dilution series (e.g., a 10 point 3-fold dilution series) of the compounds herein (e.g., approximately 40 μL final volume per well). Cell viability can be monitored (e.g., approximately 6 days later) according to the manufacturer's recommended instructions, where the CellTiter-Glo reagent is added (e.g., approximately 10 μL), vigorously mixed, covered, and placed on a plate shaker (e.g., approximately for 20 min) to ensure sufficient cell lysis prior to assessment of luminescent signal. The IC50 values are determined using the four parameter fit. The resulting IC50 value is a measurement of the ability of the compounds herein to reduce cell growth of Ras-driven cells (e.g., tumor cell lines) in vitro and/or in vivo.

[6] = tested on: SW620 cells; assay: Ras cellular assay, growth of cells with K-Ras G12V mutation (CellTiter-Glo); format: cell-based; conditions: Homo sapiens, SW-620; cell growth, Example 9, G12V mutation; read-out: IC50 against SW620 cells
Procedure, shortened: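 SW620 (K-Ras G12V) cells, e.g. 800/well in RPMI-1640 with 10% heat-inactivated FBS on standard or ultra-low attachment plates, were dosed the day after plating with e.g. a 10-point 3-fold series. Viability by CellTiter-Glo luminescence about 6 days later; IC50 from four-parameter fit.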

T1 sequence (P01116 1-188 isoform P01116-2 G12D): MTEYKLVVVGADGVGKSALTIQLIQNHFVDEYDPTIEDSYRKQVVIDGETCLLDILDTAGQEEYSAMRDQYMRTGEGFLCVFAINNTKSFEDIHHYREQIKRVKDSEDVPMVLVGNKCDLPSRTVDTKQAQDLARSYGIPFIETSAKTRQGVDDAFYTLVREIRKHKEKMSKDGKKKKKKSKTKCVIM

| IC50 [1] | IC50 [2] | IC50 [3] | IC50 [4] | IC50 [5] | IC50 [6] | SMILES |
| --- | --- | --- | --- | --- | --- | --- |
| < 100 nM | < 100 nM | < 100 nM | < 100 nM | < 5000 nM | < 5000 nM | N#Cc1c(N)sc2c(F)ccc(-c3c(Cl)c4c5c(nc(OC[C@@]67CCCN6C[C@H](F)C7)nc5c3F)N(Cc3cccnc3)CCO4)c12 [Compound 897, 2-amino-4-(8-chloro-10-fluoro-2-(((2R,7aS)-2-fluorotetrahydro-1H-pyrrolizin-7a(5H)-yl)methoxy)-4-(pyridin-3-ylmethyl)-5,6-dihydro-4H-[1,4]oxazepino[5,6,7-de]quinazolin-9-yl)-7-fluorobenzo[b]thiophene-3-carbonitrile] |
| < 100 nM | < 100 nM | < 100 nM | < 100 nM | < 5000 nM | < 5000 nM | CNC(=O)C1CC(N2CCOc3c(Cl)c(-c4ccc(F)c5sc(N)c(C#N)c45)c(F)c4nc(OC[C@@]56CCCN5C[C@H](F)C6)nc2c34)CCO1 (stereo partly drawn) [Compound 1094, 4-(9-(2-amino-3-cyano-7-fluorobenzo[b]thiophen-4-yl)-8-chloro-10-fluoro-2-(((2R,7aS)-2-fluorotetrahydro-1H-pyrrolizin-7a(5H)-yl)methoxy)-5,6-dihydro-4H-[1,4]oxazepino[5,6,7-de]quinazolin-4-yl)-N-methyltetrahydro-2H-pyran-2-carboxamide] |
| < 100 nM | < 100 nM | < 100 nM | < 100 nM | < 5000 nM | < 5000 nM | COC1CN(C(=O)N2CCC(N3C[C@H](C)Oc4c(Cl)c(-c5ccc(F)c6sc(N)c(C#N)c56)c(F)c5nc(OC[C@@]67CCCN6C[C@H](F)C7)nc3c45)CC2)C1 [Compound 935, 2-amino-4-((6S)-8-chloro-10-fluoro-2-(((2R,7aS)-2-fluorotetrahydro-1H-pyrrolizin-7a(5H)-yl)methoxy)-4-(1-(3-methoxyazetidine-1-carbonyl)piperidin-4-yl)-6-methyl-5,6-dihydro-4H-[1,4]oxazepino[5,6,7-de]quinazolin-9-yl)-7-fluorobenzo[b]thiophene-3-carbonitrile] |
| < 100 nM | < 100 nM | < 100 nM | < 100 nM | < 5000 nM | < 5000 nM | N#Cc1c(N)sc2c(F)ccc(-c3c(Cl)c4c5c(nc(OC[C@@]67CCCN6C[C@H](F)C7)nc5c3F)N(CC3(C#N)CCC3)CCO4)c12 [Compound 963, 2-amino-4-(8-chloro-4-((1-cyanocyclobutyl)methyl)-10-fluoro-2-(((2R,7aS)-2-fluorotetrahydro-1H-pyrrolizin-7a(5H)-yl)methoxy)-5,6-dihydro-4H-[1,4]oxazepino[5,6,7-de]quinazolin-9-yl)-7-fluorobenzo[b]thiophene-3-carbonitrile] |
| < 100 nM | < 100 nM | < 100 nM | < 100 nM | < 5000 nM | < 5000 nM | COC1CC(N2CCOc3c(Cl)c(-c4ccc(F)c5sc(N)c(C#N)c45)c(F)c4nc(OC[C@@]56CCCN5C[C@H](F)C6)nc2c34)C1 (stereo partly drawn) [Compound 660, 2-amino-4-(8-chloro-10-fluoro-2-(((2R,7aS)-2-fluorotetrahydro-1H-pyrrolizin-7a(5H)-yl)methoxy)-4-(3-methoxycyclobutyl)-5,6-dihydro-4H-[1,4]oxazepino[5,6,7-de]quinazolin-9-yl)-7-fluorobenzo[b]thiophene-3-carbonitrile] |
| < 100 nM | < 100 nM | < 100 nM | < 100 nM | < 5000 nM | < 5000 nM | CC1(C)CCC(N2CCOc3c(Cl)c(-c4ccc(F)c5sc(N)c(C#N)c45)c(F)c4nc(OC[C@@]56CCCN5C[C@H](F)C6)nc2c34)CO1 (stereo partly drawn) [Compound 603, 2-amino-4-(8-chloro-4-(6,6-dimethyltetrahydro-2H-pyran-3-yl)-10-fluoro-2-(((2R,7aS)-2-fluorotetrahydro-1H-pyrrolizin-7a(5H)-yl)methoxy)-5,6-dihydro-4H-[1,4]oxazepino[5,6,7-de]quinazolin-9-yl)-7-fluorobenzo[b]thiophene-3-carbonitrile] |

More lines, now with the values behind:

| SMILES | IC50 [1] | IC50 [2] | IC50 [3] | IC50 [4] | IC50 [5] | IC50 [6] |
| --- | --- | --- | --- | --- | --- | --- |
| CC(O)C1C(C)Oc2c(Cl)c(-c3ccc(F)c4sc(N)c(C#N)c34)c(F)c3nc(OC[C@@]45CCCN4C[C@H](F)C5)nc(c23)N1CC(F)F (stereo partly drawn) [Compound 646, 2-amino-4-(8-chloro-4-(2,2-difluoroethyl)-10-fluoro-2-(((2R,7aS)-2-fluorotetrahydro-1H-pyrrolizin-7a(5H)-yl)methoxy)-5-(1-hydroxyethyl)-6-methyl-5,6-dihydro-4H-[1,4]oxazepino[5,6,7-de]quinazolin-9-yl)-7-fluorobenzo[b]thiophene-3-carbonitrile] | < 100 nM | < 100 nM | < 100 nM | < 100 nM | < 5000 nM | < 5000 nM |
| CC1Oc2c(Cl)c(-c3ccc(F)c4sc(N)c(C#N)c34)c(F)c3nc(OC[C@@]45CCCN4C[C@H](F)C5)nc(c23)N([C@@H]2CCOC2)C1C (stereo partly drawn) [Compound 741, 2-amino-4-(8-chloro-10-fluoro-2-(((2R,7aS)-2-fluorotetrahydro-1H-pyrrolizin-7a(5H)-yl)methoxy)-5,6-dimethyl-4-((R)-tetrahydrofuran-3-yl)-5,6-dihydro-4H-[1,4]oxazepino[5,6,7-de]quinazolin-9-yl)-7-fluorobenzo[b]thiophene-3-carbonitrile] | < 100 nM | < 100 nM | < 100 nM | < 100 nM | < 5000 nM | < 5000 nM |
| CC1COc2c(Cl)c(-c3ccc(F)c4sc(N)c(C#N)c34)c(F)c3nc(OC[C@@]45CCCN4C[C@H](F)C5)nc(c23)N(C)[C@@H]1C (stereo partly drawn) [Compound 1206, 2-amino-4-((5R)-9-chloro-11-fluoro-2-(((2R,7aS)-2-fluorotetrahydro-1H-pyrrolizin-7a(5H)-yl)methoxy)-4,5,6-trimethyl-4,5,6,7-tetrahydro-[1,5]oxazocino[4,3,2-de]quinazolin-10-yl)-7-fluorobenzo[b]thiophene-3-carbonitrile] | < 100 nM | < 100 nM | < 100 nM | < 100 nM | < 5000 nM | < 5000 nM |
| C[C@H]1CN(C2CC2)c2nc(OC[C@@]34CCCN3C[C@H](F)C4)nc3c(F)c(-c4ccc(F)c5sc(N)c(C#N)c45)c(Cl)c(c23)O1 [Compound 1044, 2-amino-4-((6S)-8-chloro-4-cyclopropyl-10-fluoro-2-(((2R,7aS)-2-fluorotetrahydro-1H-pyrrolizin-7a(5H)-yl)methoxy)-6-methyl-5,6-dihydro-4H-[1,4]oxazepino[5,6,7-de]quinazolin-9-yl)-7-fluorobenzo[b]thiophene-3-carbonitrile] | < 100 nM | < 100 nM | < 100 nM | < 100 nM | < 5000 nM | < 5000 nM |
| N#Cc1c(N)sc2c(F)ccc(-c3c(Cl)c4c5c(nc(OC[C@@]67CCCN6C[C@H](F)C7)nc5c3F)N(C3CCCN(C(=O)[C@@H]5N[C@H]5C5CC5)C3)CCO4)c12 (stereo partly drawn) [Compound 643, 2-amino-4-(8-chloro-4-(1-((2R,3S)-3-cyclopropylaziridine-2-carbonyl)piperidin-3-yl)-10-fluoro-2-(((2R,7aS)-2-fluorotetrahydro-1H-pyrrolizin-7a(5H)-yl)methoxy)-5,6-dihydro-4H-[1,4]oxazepino[5,6,7-de]quinazolin-9-yl)-7-fluorobenzo[b]thiophene-3-carbonitrile] | < 100 nM | < 100 nM | < 100 nM | < 100 nM | < 5000 nM | < 5000 nM |
